Measured values reported in ChEMBL document CHEMBL1857833, “Screening and optimization of specific chemical series against human African Trypanosomiasis (HAT)”.
Values after ≈ are worked out from the molar mass of the structure shown. Values joined by “and” are separate entries in the source; they are usually repeats but may differ in a detail not shown here. Equal entries are not always repeated.

Columns and labels:
Trypanosoma brucei [1] = assay: DNDI: Mean survival time in days (MSD) of mice after intraperitoneal injection of Human African Trypanosomiasis (HAT), EATRO 110, in vivo at 2.5 mg/kg/day for 4 days.; type: functional, Mus musculus
[2] = DNDI: half life in mouse liver microsomes at a concentration of 10uM; type: ADME, Microsome
Trypanosoma brucei [3] = assay: DNDI: Inhibition of Human African Trypanosomiasis, SBRI 427, in vitro; type: functional, organism-based
in vitro = conditions: mouse, t (1 / 2)
Description: DNDI: half life in mouse liver microsomes at a concentration of 1uM

Trypanosoma brucei [4] = assay: DNDI: Mean survival time in days (MSD) of mice after intraperitoneal injection of Human African Trypanosomiasis (HAT), EATRO 110, in vivo at 5 mg/kg/day for 4 days.; type: functional, Mus musculus
[5] = (§1) DNDI: Cytotoxicity against L929 mouse fibroblasts, 72 hour.; type: toxicity, cell-based; conditions: mouse, L929 mouse fibroblasts
Leishmania donovani = assay: DNDI: Inhibition of formation of Leishmania donovani (strain MHOM/ET/67/L82) axenic amastigotes, in vitro.; type: functional, organism-based
[6] = DNDI: in vitro intrinsic clearance in mouse liver microsomes at a concentration of 10uM; type: ADME, Microsome; conditions: read-out: CLint in vitro
[7] = DNDI: Lipophilicity measured in Chromatographic hydrophobicity index (CHI) assay, pH 7.4; type: physicochemical; conditions: buffer
Trypanosoma brucei [8] = assay: DNDI: Mean survival time in days (MSD) of mice after intraperitoneal injection of Human African Trypanosomiasis (HAT), EATRO 110, in vivo at 12.5 mg/kg/day for 4 days.; type: functional, Mus musculus
Trypanosoma brucei [9] = assay: DNDI: Mean survival time in days (MSD) of mice after intraperitoneal injection of Human African Trypanosomiasis (HAT), EATRO 110, in vivo at 1.25 mg/kg/day for 4 days.; type: functional, Mus musculus
[10] = DNDI: Solubility in phosphate buffered saline at pH7.4 measured by optical density (turbidimetry) at room temperature (OD-RT); type: physicochemical; conditions: pH 7.4
Trypanosoma cruzi = assay: DNDI: Inhibition of Chagas Disease parasite Trypanosoma cruzi (Tulahuen LacZ, Clone C4), in vitro.; type: functional, organism-based
Trypanosoma brucei [11] = assay: DNDI: Mean survival time in days (MSD) of mice after intraperitoneal injection of Human African Trypanosomiasis (HAT), EATRO 110, at 0.5 mg/kg/day for 4 days.; type: functional, Mus musculus
[12] = (§2) DNDI: Cytotoxicity against L929 mouse fibroblasts, CYTO-SP, 24 hour; type: toxicity, cell-based; conditions: mouse, L929 mouse fibroblasts
Plasmodium falciparum = assay: DNDI: Inhibition of the malaria parasite Plasmodium falciparum, in vitro; type: functional, organism-based; conditions: K1
[13] = DNDI: in vitro intrinsic clearance in human liver microsomes at a concentration of 10uM; type: ADME, Microsome
[14] = mouse, microsomes, 1 µM
Description: DNDI: in vitro intrinsic clearance in mouse liver microsomes at a concentration of 1uM

[15] = DNDI: Cytotoxicity against L-6 rat myoblasts from skeletal muscle cells; type: toxicity, cell-based, L6; conditions: L-6 rat skeletal muscle myoblasts
Trypanosoma brucei [16] = assay: DNDI: Mean survival time in days (MSD) of mice after intraperitoneal injection of Human African Trypanosomiasis (HAT), EATRO 110, in vivo at 20 mg/kg/day for 4 days.; type: functional, Mus musculus
[17] = DNDI: half life in human liver microsomes at a concentration of 10uM; type: ADME, Microsome
[18] = test system: Trypanosoma brucei rhodesiense; assay: DNDI: Inhibition of Human African Trypanosomiasis (HAT), STIB 900, in vitro; type: functional, organism-based
Trypanosoma brucei [19] = assay: DNDI: Inhibition of Human African Trypanosomiasis, Cross 22, in vitro; type: functional, organism-based
L929 [20] = assay: as §2; type: toxicity, cell-based; conditions: l929
Trypanosoma brucei [21] = assay: DNDI: Inhibition of Human African Trypanosomiasis, EATRO 110, in vitro; type: functional, organism-based
MDR1 (ABCB1) [22] = biological target: T1, MDR1 (ABCB1) (Homo sapiens, UniProt P08183); assay: DNDI: % of compound recovered from basolateral to apical permeability assay in MDCK cells transfected with human MDR1; type: ADME, cell-based, Canis lupus familiaris; conditions: dog
T1 sequence (P08183 whole entry): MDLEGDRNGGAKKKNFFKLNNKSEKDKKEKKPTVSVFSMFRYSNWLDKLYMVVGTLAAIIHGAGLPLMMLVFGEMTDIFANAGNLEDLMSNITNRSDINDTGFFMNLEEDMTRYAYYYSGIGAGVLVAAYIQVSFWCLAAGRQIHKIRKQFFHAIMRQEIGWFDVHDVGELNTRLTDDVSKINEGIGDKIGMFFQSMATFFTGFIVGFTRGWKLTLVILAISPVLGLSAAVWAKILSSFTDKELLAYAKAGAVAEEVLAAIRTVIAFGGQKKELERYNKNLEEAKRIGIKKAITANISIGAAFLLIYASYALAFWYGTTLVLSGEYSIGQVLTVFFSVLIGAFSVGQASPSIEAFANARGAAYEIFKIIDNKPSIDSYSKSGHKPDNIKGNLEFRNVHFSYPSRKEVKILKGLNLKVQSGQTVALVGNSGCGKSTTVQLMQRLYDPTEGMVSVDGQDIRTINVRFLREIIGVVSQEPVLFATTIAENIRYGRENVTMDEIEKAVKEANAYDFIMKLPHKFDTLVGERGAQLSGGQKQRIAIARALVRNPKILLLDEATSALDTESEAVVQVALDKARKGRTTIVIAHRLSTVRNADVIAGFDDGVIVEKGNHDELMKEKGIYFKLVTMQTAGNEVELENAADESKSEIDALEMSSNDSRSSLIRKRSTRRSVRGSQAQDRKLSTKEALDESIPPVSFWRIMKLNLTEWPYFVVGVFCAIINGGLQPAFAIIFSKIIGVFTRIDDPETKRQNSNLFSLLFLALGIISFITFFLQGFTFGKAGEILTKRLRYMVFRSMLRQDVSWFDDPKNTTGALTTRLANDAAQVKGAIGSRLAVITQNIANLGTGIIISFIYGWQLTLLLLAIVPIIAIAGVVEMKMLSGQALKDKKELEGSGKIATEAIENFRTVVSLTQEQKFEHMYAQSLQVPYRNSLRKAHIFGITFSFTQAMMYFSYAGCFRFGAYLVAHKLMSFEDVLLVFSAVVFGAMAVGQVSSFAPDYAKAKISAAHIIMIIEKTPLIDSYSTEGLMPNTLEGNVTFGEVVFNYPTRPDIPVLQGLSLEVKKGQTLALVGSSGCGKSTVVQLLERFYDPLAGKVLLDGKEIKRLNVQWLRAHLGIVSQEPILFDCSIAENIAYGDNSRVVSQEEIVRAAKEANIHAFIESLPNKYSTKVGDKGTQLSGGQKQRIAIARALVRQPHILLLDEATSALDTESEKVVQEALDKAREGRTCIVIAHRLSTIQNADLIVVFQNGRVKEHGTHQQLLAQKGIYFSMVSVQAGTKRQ

MDR1 (ABCB1) [23] = biological target: T1, MDR1 (ABCB1); assay: DNDI: Efflux ratio for permeability from basolateral to apical side to apical to basolateral side of MDCK cells transfected with human MDR1; type: ADME, cell-based, Canis lupus familiaris; conditions: dog, read-out: B-A/A-B
MDR1 (ABCB1) [24] = biological target: T1, MDR1 (ABCB1); assay: DNDI: Apparent permeability from apical to basolateral side of the MDCK cell transfected with human MDR1; type: ADME, cell-based, Canis lupus familiaris; conditions: dog
MDR1 (ABCB1) [25] = biological target: T1, MDR1 (ABCB1); assay: DNDI: % of compound recovered from apical to basolateral permeability assay in MDCK cells transfected with human MDR1; type: ADME, cell-based, Canis lupus familiaris; conditions: dog
MDR1 (ABCB1) [26] = biological target: T1, MDR1 (ABCB1); assay: DNDI: Apparent permeability from basolateral to apical side of the MDCK cell transfected with human MDR1 after 60 mins at a concentration of 3uM; type: ADME, cell-based, Canis lupus familiaris; conditions: dog
[27] = DNDI: half-life in mouse S9 microsomes at a concentration of 1uM; type: ADME, subcellular, Liver, S9 fraction
MDR1 (ABCB1) [28] = biological target: T1, MDR1 (ABCB1); assay: DNDI: % of compound recovered from apical to basolateral permeability assay in MDCK cells transfected with human MDR1 after 60 mins at a concentration of 3uM in the presence of GF120918; type: ADME, cell-based, Canis lupus familiaris; conditions: dog, MDCK-MDR1, with GF120918 (concentration not stated)
MDR1 (ABCB1) [29] = biological target: T1, MDR1 (ABCB1); assay: DNDI: % of compound recovered from apical to basolateral permeability assay in MDCK cells transfected with human MDR1 after 60 mins at a concentration of 3uM; type: ADME, cell-based, Canis lupus familiaris; conditions: dog
[30] = DNDI: Solubility in phosphate buffered saline at pH7.4 measured by nephelometry at room temperature (NEPH-RT); type: physicochemical; conditions: pH 7.4
[31] = DNDI: half-life in mouse S9 microsomes at a concentration of 10uM; type: ADME, subcellular, Liver, S9 fraction
MDR1 (ABCB1) [32] = biological target: T1, MDR1 (ABCB1); assay: DNDI: Apparent permeability from apical to basolateral side of the MDCK cell transfected with human MDR1after 60 mins at a concentration of 3uM; type: ADME, cell-based, Canis lupus familiaris; conditions: dog, MDCK-MDR1
Trypanosoma brucei [33] = assay: DNDI: Mean survival time in days (MSD) of mice after intraperitoneal injection of Human African Trypanosomiasis (HAT), STIB 795, in vivo at 50 mg/kg/day for 4 days.; type: functional, Mus musculus
[34] = DNDI: % of compound remaining in rat S9 microsomes at a concentration of 1uM; type: ADME, subcellular, Liver, S9 fraction
Trypanosoma brucei [35] = assay: DNDI: Mean survival time in days (MSD) of mice after intraperitoneal injection of Human African Trypanosomiasis (HAT), EATRO 110, in vivo at 50 mg/kg/day for 4 days.; type: functional, Mus musculus
[36] = DNDI: % of compound remaining in mouse S9 microsomes at a concentration of 1uM after 60 mins; type: ADME, subcellular, Liver, S9 fraction
L929 [37] = assay: as §1; type: toxicity, cell-based; conditions: l929
[38] = Trypanosoma brucei, SBRI 427, read-out: IC50

| Compound | MSD (Trypanosoma brucei [1]) | half-life at 10 µM [2] | IC50 (Trypanosoma brucei [3]; [38]) | half-life at 1 µM (in vitro; liver microsomes) | MSD (Trypanosoma brucei [4]) | IC50 at 72 h [5] | microsomal CLint at 10 µM [6] | chromatographic logD [7] | MSD (Trypanosoma brucei [8]) | MSD (Trypanosoma brucei [9]) | solubility kinetic [10] | MSD (Trypanosoma brucei [11]) | IC50 at 24 h [12] | CLint in vitro [14] | MSD (Trypanosoma brucei [16]) | IC50 (Trypanosoma brucei [21]) | recovery (MDR1 (ABCB1) [22]) | efflux ratio (MDR1 (ABCB1) [23]) | Papp A→B (MDR1 (ABCB1) [24]) | recovery (MDR1 (ABCB1) [25]) | also measured |
| --- | --- | --- | --- | --- | --- | --- | --- | --- | --- | --- | --- | --- | --- | --- | --- | --- | --- | --- | --- | --- | --- |
| COc1ccc(/C(=N/O)NC2CCCCC2)cc1 | 4 days | 5 min | 0.61 µg/mL (≈ 2.46 µM) | 3 min | 4.3 days | > 10 µg/mL | 544 µL/min/mg | 3.82 | 4 days | 4 days | 50 µM (≈ 12.4 µg/mL) | 4 days | > 50 µg/mL | 329 µL/min/mg | 4.6 days | – | – | – | – | – | IC50 (Leishmania donovani): 11.9 µg/mL (≈ 48 µM); IC50 (Trypanosoma cruzi): > 30 µg/mL; IC50 (Plasmodium falciparum): 4.7 µg/mL (≈ 18.9 µM); CLint in vitro [13]: 38 µL/min/mg; IC50 [15]: 58.3 µg/mL (≈ 235 µM); half-life at 10 µM [17]: 76 min; IC50 [18]: 18.3 µg/mL (≈ 73.7 µM) |
| CCOc1ccc(-c2nc(CNC3CC(C)CC(C)(C)C3)co2)cc1 (configuration not stated) | – | – | 1.23 µg/mL (≈ 3.59 µM) | 17 min | – | < 3.13 µg/mL | – | – | – | – | – | – | 44.1 µg/mL (≈ 129 µM) | 50 µL/min/mg | – | 1.03 µg/mL (≈ 3.01 µM) | – | – | – | – | IC50 (Trypanosoma brucei [3]): 0.79 µg/mL and 1.06 µg/mL and 1.41 µg/mL and 0.84 µg/mL; IC50 (Trypanosoma brucei [19]): 0.79 µg/mL (≈ 2.31 µM); IC50 (L929 [20]): 29.3 µg/mL (≈ 85.6 µM) |
| COc1ccccc1Oc1ncccc1/C(=N\O)NC1CCCCC1 | 4 days | 21 min | 0.78 µg/mL (≈ 2.28 µM) | – | 4 days | – | 138 µL/min/mg | 3.77 | 4 days | 4 days | 25 µM (≈ 8.54 µg/mL) | 4 days | > 50 µg/mL | – | 4.3 days | 1.56 µg/mL (≈ 4.57 µM) | 84% | 2.6 | 18.4 ×10⁻⁶ cm/s | 77% | Papp B→A at 1 h, 3 µM (MDR1 (ABCB1) [26]): 48.3 ×10⁻⁶ cm/s |
| Cc1cc(N2CCNCC2)n2nc(-c3cccc(F)c3)cc2n1 | – | – | > 5 µg/mL | – | – | 9.09 µg/mL (≈ 29.2 µM) | – | 3.44 | – | – | – | – | – | – | – | – | – | – | – | – | half-life at 1 µM [27]: 45.7 min; recovery at 1 h, 3 µM (MDR1 (ABCB1) [28]): 63.6%; recovery at 1 h, 3 µM (MDR1 (ABCB1) [29]): 70.4%; solubility kinetic [30]: 50 µM (≈ 15.6 µg/mL); half-life at 10 µM [31]: 214 min; Papp A→B at 1 h, 3 µM (MDR1 (ABCB1) [32]): 45.2 ×10⁻⁶ cm/s |
| O/N=C(/NC1CCCCC1)c1cccnc1Oc1ccccc1Cl | 4 days | 14 min | 0.95 µg/mL (≈ 2.75 µM) | – | 4 days | – | 211 µL/min/mg | 4.52 | 4 days | 4 days | 4 µM (≈ 1.38 µg/mL) | 4 days | > 50 µg/mL | – | 4 days | 1.41 µg/mL (≈ 4.08 µM) | 67% | 1.2 | 30.2 ×10⁻⁶ cm/s | 58% | Papp B→A at 1 h, 3 µM (MDR1 (ABCB1) [26]): 34.8 ×10⁻⁶ cm/s |
| O/N=C(/NC1CCCCC1)c1cccnc1Oc1ccccc1 | – | 11 min | 1.17 µg/mL (≈ 3.76 µM) | – | – | > 10 µg/mL | 275 µL/min/mg | 3.92 | – | – | 63 µM (≈ 19.6 µg/mL) | – | > 50 µg/mL | 423 µL/min/mg | – | – | 83% | 1.7 | 30.9 ×10⁻⁶ cm/s | 66% | half-life at 1 µM (in vitro; microsomes): 2 min; IC50 (Leishmania donovani): 44 µg/mL (≈ 141 µM); IC50 (Trypanosoma cruzi): > 30 µg/mL; IC50 (Plasmodium falciparum): 4.2 µg/mL (≈ 13.5 µM); CLint in vitro [13]: 9 µL/min/mg; IC50 [15]: 43.9 µg/mL (≈ 141 µM); Papp B→A at 1 h, 3 µM (MDR1 (ABCB1) [26]): 51.4 ×10⁻⁶ cm/s; half-life at 10 µM [17]: 314 min; IC50 [18]: 27.6 µg/mL (≈ 88.6 µM) |
| CCCCc1ccc(-c2nc(CNCCC3CCCN3C)co2)cc1 (configuration not stated) | – | – | 0.19 µg/mL (≈ 0.556 µM) | 37 min | – | 4.21 µg/mL (≈ 12.3 µM) | – | 4.69 | – | – | – | – | – | 23 µL/min/mg | – | – | – | – | – | – | MSD (Trypanosoma brucei [33]): 7 days; IC50 (Trypanosoma brucei [3]): 0.21 µg/mL (≈ 0.615 µM); remaining at 1 µM [34]: 3.27%; MSD (Trypanosoma brucei [35]): 10 days; remaining at 1 h, 1 µM [36]: 57.4%; solubility kinetic [30]: 100 µM (≈ 34.1 µg/mL) |
| CN1CCCC1CCNCc1coc(-c2ccc(OC3CCCC3)cc2)n1 (configuration not stated) | – | – | 0.22 µg/mL (≈ 0.595 µM) | – | – | 1.33 µg/mL (≈ 3.6 µM) | – | – | – | – | – | – | – | – | – | – | – | – | – | – | IC50 (L929 [37]): 1.42 µg/mL (≈ 3.84 µM); MSD (Trypanosoma brucei [35]): <1 days |
